Data: patent US8012944B2, “Method for treating cancer using IAP antisense oligomer and chemotherapeutic agent” (Pharmascience Inc., priority 2003, dated 2011)
Oligonucleotides are written 5' to 3', each unit as a sugar letter and its base; * is a phosphorothioate linkage, no mark a phosphodiester; rarer units and linkages stand in square brackets, end groups in braces. Plain capitals give the bases only. d = 2'-deoxy (DNA); m = 2'-O-methyl

Key:
XIAP mRNA [1] = experiment: XIAP mRNA knock-down in H460 cells (real-time RT-PCR / TaqMan); format: cell-based, human
Protocol: RNA was extracted from cells lysed in RLT buffer (QIAGEN, Valencia, Calif.), and purified using QIAGEN RNeasy columns/kits. Real-time quantitative PCR was performed on a Perkin-Elmer ABI 7700 Prism PCR machine. RNA was reverse transcribed and amplified according to the TaqMan Universal PCR Master Mix protocol of PE Biosystems, using primers and probes designed to specifically recognize XIAP, HIAP1, survivin, or GAPDH. For human survivin, the forward primer was 5′-[…]-3′ (SEQ ID NO: 263), the reverse primer was 5′-GAAAGGAAAGCGCAACCG-3′ (SEQ ID NO: 264), and the probe was 5′-(FAM)[…](TAMRA)-3′ (SEQ ID NO: 265). For human HIAP1, the forward primer was 5′-[…]-3′ (SEQ ID NO: 266), the reverse primer was 5′-[…]-3′ (SEQ ID NO: 267), and the probe was 5′-(FAM)[…](TAMRA)-3′ (SEQ ID NO: 268). For human XIAP, the forward primer was 5′-[…]-3′ (SEQ ID NO: 269), the reverse primer was 5′-[…]-3′ (SEQ ID NO: 270), and the probe was 5′-(FAM)[…](TAMRA)-3′ (SEQ ID NO: 271). For human GAPDH, the forward primer was 5′-GAAGGTGAAGGTCGGAGTC-3′ (SEQ ID NO: 272), the reverse primer was 5′-GAAGATGGTGATGGGATTC-3′ (SEQ ID NO: 273), and the probe was 5′-(JOE)[…](TAMRA)-3′ (SEQ ID NO: 274). FAM is 6-carboxyfluoroscein, JOE is 6-carboxy-4,5-dichloro-2,7-dimethoxyfluoroscein, and TAMRA is 6-carboxy-N,N,N′,N′-tetramethylrhodamine. FAM and JOE are 5′ reporter dyes, while TAMRA is a 3′ quencher dye.
Relative quantification of gene expression was performed as described in the PE Biosystems manual using GAPDH as an internal standard. The comparative Ct (cycle threshold) method was used for relative quantitation of IAP mRNA levels compared to GAPDH mRNA levels. Briefly, real-time fluorescence measurements were taken at each PCR cycle and the threshold cycle (Ct) value for each sample was calculated by determining the point at which fluorescence exceeded a threshold limit of 30 times the baseline standard deviation. The average baseline value and the baseline SD are calculated starting from the third cycle baseline value and stopping at the baseline value three cycles before the signal starts to exponentially rise. The PCR primers and/or probes for the specific IAPs were designed to span at least one exon-intron boundary separated by 1 kb or more of genomic DNA, to reduce the possibility of amplifying and detecting genomic DNA contamination. The specificity of the signal, and possible contamination from DNA, were verified by treating some RNA samples with either DNase or RNase, prior to performing the reverse transcription and PCR reaction steps.
A portion of the 96 nucleobase oligomers depicted in Table 2 were rescreened for their ability to knock-down XIAP mRNA in NCI-H460 cells at […] post-transfection.
One day prior to transfection, H460 cells were plated in 6- or 96-well tissue culture plates. Phosphorothioate antisense oligonucleotides were delivered into cells with Lipofectamine 2000 (Life Technologies) in the form of liposome-oligonucleotide complexes. Following a 4.5 or 6 h transfection, the transfection medium was replaced with RPMI medium containing 10% FBS, and the cells incubated for another 24 or 48 h.
Total RNA from H460 cells treated with liposome-oligonucleotide complexes for 6 hours was immediately isolated using RNeasy mini spin columns and DNase treatment (QIAGEN, Valencia, Calif.). Specific XIAP mRNA was measured using a real-time quantitative RT-PCR method. […]

XIAP mRNA [2] = experiment: as above; format: cell-based, human; conditions: 2 × 2 MBO; NCI-H460 cells, 9 hours post-transfection; relative level (mock control 1.01)

Sequence | XIAP down-regulation H460 RNA (XIAP mRNA [1]) [%] | XIAP RNA (XIAP mRNA [2])
CATCTTGGATACTGTCTTT (antisense; sugars from the 5' end m2 d15 m2, backbone, methylation of C and T or U not given here; further chemistry not fully specified) [Code D10] | 55 | 0.54
CTAAATACTAGAGTTCGAC (antisense; sugars from the 5' end m2 d15 m2, backbone and T or U not given here; further chemistry not fully specified) [Code G2] | 55 | 0.44
CTTGAAAGTAATGACTGTG (antisense; sugars from the 5' end m2 d15 m2, backbone, methylation of C and T or U not given here; further chemistry not fully specified) [Code C11] | 52 | 0.44
CTTTGATCTGGCTCAGACT (antisense; sugars from the 5' end m2 d15 m2, backbone, methylation of C and T or U not given here; further chemistry not fully specified) [Code G12] | 76 | 0.24
GAAACCACATTTAACAGTT (antisense; sugars from the 5' end m2 d15 m2, backbone, methylation of C and T or U not given here; further chemistry not fully specified) [Code H12] | 52 | 0.48
GAGTAAAAAAAATGGATAA (mG*mAdGdTdAdAdAdAdAdAdAdAdTdGdGdAdTmA*mA; antisense) [Code G11] | 33 | 0.67
GCAGAATAAAACTAATAAT (antisense; sugars from the 5' end m2 d15 m2, backbone and T or U not given here; further chemistry not fully specified) [Code D2] | 39 | 0.66
GCGGCCCAAAACAAAGAAG (antisense CCGGCCCAAAACAAAGAAG; sugars from the 5' end m2 d15 m2, linkages s1 o16 s1 (s phosphorothioate, o phosphodiester), methylation of C not given here) [Code C7] | 72 | 0.27
GGAAGATTTGTTGAATTTG (antisense; sugars from the 5' end m2 d15 m2, backbone and T or U not given here; further chemistry not fully specified) [Code F7] | 69 | 0.3
GGCCAGTTCTGAAAGGACT (antisense; sugars from the 5' end m2 d15 m2, backbone and T or U not given here; further chemistry not fully specified) [Code D6] | 60 | 0.39
GTCAAATCATTAATTAGGA (antisense; sugars from the 5' end m2 d15 m2, backbone and T or U not given here; further chemistry not fully specified) [Code B2] | 55 | 0.45
GTGTCTGATATATCTACAA (antisense; sugars from the 5' end m2 d15 m2, backbone and T or U not given here; further chemistry not fully specified) [Code H5] | 39 | 0.59
GTTAGTGATGGTGTTTTGT (antisense; sugars from the 5' end m2 d15 m2, backbone and T or U not given here; further chemistry not fully specified) [Code E9] | 43 | 0.69
GTTATAGGAGCTAACAAAT (antisense; sugars from the 5' end m2 d15 m2, backbone and T or U not given here; further chemistry not fully specified) [Code B3] | 34 | 0.64
TACACTTAGAAATTAAATC (antisense; sugars from the 5' end m2 d15 m2, backbone, methylation of C and T or U not given here; further chemistry not fully specified) [Code A12] | 46 | 0.54
TAGATCTGGAACCAGAACC (antisense; sugars from the 5' end m2 d15 m2, backbone, methylation of C and T or U not given here; further chemistry not fully specified) [Code C10] | 53 | 0.56
TATATATTCTTGTCCCTTC (antisense; sugars from the 5' end m2 d15 m2, backbone, methylation of C and T or U not given here; further chemistry not fully specified) [Code A9] | 62 | 0.46
TCGGGTATATGGTGTCTGA (antisense; chemistry not fully specified) [Code A6] | 72 | 0.27
TCTAGAGGGTGGCTCAGGA (antisense; sugars from the 5' end m2 d15 m2, backbone and T or U not given here; further chemistry not fully specified) [Code B1] | 66 | 0.34
TCTGCCATGGATGGATTTC (antisense; sugars from the 5' end m2 d15 m2, backbone, methylation of C and T or U not given here; further chemistry not fully specified) [Code G7] | 41 | 0.66
TGAATTAATTTTTAATATC (antisense; sugars from the 5' end m2 d15 m2, backbone and T or U not given here; further chemistry not fully specified) [Code H1] | 13 | 0.87
TGAGAGCCCTTTTTTTGTT (antisense; sugars from the 5' end m2 d15 m2, backbone and T or U not given here; further chemistry not fully specified) [Code D1] | 75 | 0.25
TGTTCTAACAGATATTTGC (antisense; sugars from the 5' end m2 d15 m2, backbone, methylation of C and T or U not given here; further chemistry not fully specified) [Code G8] | 49 | 0.64
TTACCACATCATTCAAGTC (antisense; sugars from the 5' end m2 d15 m2, backbone and T or U not given here; further chemistry not fully specified) [Code F2] | 34 | 0.64
TTAGCAAAATATGTTTTAA (antisense; sugars from the 5' end m2 d15 m2, backbone and T or U not given here; further chemistry not fully specified) [Code G1] | 33 | 0.67
TTCAGTTTTCCACCACAAC (antisense; sugars from the 5' end m2 d15 m2, backbone, methylation of C and T or U not given here; further chemistry not fully specified) [Code H6] | 68 | 0.31
